Where “and” joins values, the source holds several entries; their conditions need not be identical. Equal values may be shown once. Inconclusive results and toxic doses are left out. Rule as the data show it: active = T/C of 150% or more; inactive = T/C below 125%.
System: L1210 leukemia ip in BDF1 mice, survival T/C
Assay: NCI In Vivo Anticancer Drug Screen. Data for tumor model L1210 Leukemia (intraperitoneal) in B6D2F1 (BDF1) mice
Settings: endpoint: mean survival time, higher = longer survival
Outline: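 Transplantable tumor model; survival measured in treated vs vehicle control mice. Value = treated/control.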

[1] = dose: 100.0 mg/kg/injection, schedule: Q01DX009 (ip), vehicle: Klucel (hydroxypropylcellulose) (HPC)
[2] = dose: 100.0 mg/kg/injection, schedule: Q04DX002 (ip), vehicle: Klucel (hydroxypropylcellulose) (HPC)
[3] = dose: 200.0 mg/kg/injection, schedule: Q04DX002 (ip), vehicle: Klucel (hydroxypropylcellulose) (HPC)
[4] = dose: 100.0 mg/kg/injection, schedule: Q01DX009 (ip), vehicle: saline with Tween-80
[5] = dose: 100.0 mg/kg/injection, schedule: Q04DX002 (ip), vehicle: saline with Tween-80
[6] = dose: 200.0 mg/kg/injection, schedule: Q01DX009 (ip), vehicle: saline with Tween-80
[7] = dose: 200.0 mg/kg/injection, schedule: Q04DX002 (ip), vehicle: saline with Tween-80
[8] = dose: 25.0 mg/kg/injection, schedule: Q01DX009 (ip), vehicle: Klucel (hydroxypropylcellulose) (HPC)
[9] = dose: 25.0 mg/kg/injection, schedule: Q04DX003 (ip), vehicle: Klucel (hydroxypropylcellulose) (HPC)
[10] = dose: 50.0 mg/kg/injection, schedule: Q01DX009 (ip), vehicle: Klucel (hydroxypropylcellulose) (HPC)
[11] = dose: 50.0 mg/kg/injection, schedule: Q04DX003 (ip), vehicle: Klucel (hydroxypropylcellulose) (HPC)
[12] = dose: 100.0 mg/kg/injection, schedule: Q01DX001 (ip), vehicle: saline
[13] = dose: 200.0 mg/kg/injection, schedule: Q01DX001 (ip), vehicle: saline
[14] = dose: 400.0 mg/kg/injection, schedule: Q01DX001 (ip), vehicle: saline

Measured: T/C

Cc1cccc(C)c1NC(=S)N(CCC#N)C(C)C
inactive: [1] 103 % of control | dose: 200.0 mg/kg/injection, schedule: Q01DX009 (ip), vehicle: Klucel (hydroxypropylcellulose) (HPC) 106 % of control | dose: 400.0 mg/kg/injection, schedule: Q01DX009 (ip), vehicle: Klucel (hydroxypropylcellulose) (HPC) 96 % of control

CCCC(C(O)c1ccc(OC)cc1)C(O)(C(F)(F)F)C(F)(F)F (stereo not drawn)
inactive: dose: 100.0 mg/kg/injection, schedule: Q04DX003 (ip), vehicle: other 97 % of control | dose: 200.0 mg/kg/injection, schedule: Q04DX003 (ip), vehicle: other 92 % of control | dose: 400.0 mg/kg/injection, schedule: Q04DX003 (ip), vehicle: other 92 % of control

O=C(O)c1cocc1C(=O)O
inactive: [2] 91 % of control | [3] 91 % of control

COc1ccc(Cl)cc1NC(=O)Oc1ccccc1C(C)C
inactive: dose: 100.0 mg/kg/injection, schedule: Q01DX001 (ip), vehicle: saline with Tween-80 96 % of control | [4] 96 % of control | [5] 95 % of control and 106 % of control | dose: 200.0 mg/kg/injection, schedule: Q01DX001 (ip), vehicle: saline with Tween-80 102 % of control | [6] 98 % of control | [7] 92 % of control and 109 % of control | dose: 400.0 mg/kg/injection, schedule: Q01DX001 (ip), vehicle: saline with Tween-80 87 % of control | dose: 400.0 mg/kg/injection, schedule: Q01DX009 (ip), vehicle: saline with Tween-80 89 % of control | dose: 400.0 mg/kg/injection, schedule: Q04DX002 (ip), vehicle: saline with Tween-80 95 % of control and 91 % of control

CS(=O)(=O)c1nnc(-c2ccc(Cl)c(Cl)c2)s1
inactive: dose: 75.0 mg/kg/injection, schedule: Q01DX001 (ip), vehicle: saline 101 % of control | dose: 75.0 mg/kg/injection, schedule: Q04DX003 (ip), vehicle: saline 110 % of control | dose: 150.0 mg/kg/injection, schedule: Q01DX001 (ip), vehicle: saline 100 % of control | dose: 150.0 mg/kg/injection, schedule: Q04DX003 (ip), vehicle: saline 95 % of control | dose: 300.0 mg/kg/injection, schedule: Q01DX001 (ip), vehicle: saline 110 % of control

Cc1ccc(SSSc2ccc(C)cc2[N+](=O)[O-])c([N+](=O)[O-])c1
inactive: dose: 50.0 mg/kg/injection, schedule: Q04DX002 (ip), vehicle: saline with Tween-80 88 % of control | [5] 88 % of control | [7] 98 % of control

COc1ccc2c3c(ccc2c1)C(=O)/C(=C\O)CC3
inactive: [8] 92 % of control | [9] 100 % of control | [10] 108 % of control | [11] 101 % of control | [1] 88 % of control | dose: 100.0 mg/kg/injection, schedule: Q04DX003 (ip), vehicle: Klucel (hydroxypropylcellulose) (HPC) 100 % of control and 103 % of control | dose: 200.0 mg/kg/injection, schedule: Q04DX003 (ip), vehicle: Klucel (hydroxypropylcellulose) (HPC) 103 % of control

BrC12CCC(CC1)C1(Br)CCC2CC1
inactive: [12] 102 % of control | dose: 100.0 mg/kg/injection, schedule: Q04DX003 (ip), vehicle: saline 86 % of control | [13] 96 % of control | dose: 200.0 mg/kg/injection, schedule: Q04DX003 (ip), vehicle: saline 91 % of control | [14] 89 % of control | dose: 400.0 mg/kg/injection, schedule: Q04DX003 (ip), vehicle: saline 86 % of control

CCOC(=O)c1cnc(SC)nc1Nc1c(Br)cc(Br)cc1Br
inactive: dose: 12.5 mg/kg/injection, schedule: Q01DX009 (ip), vehicle: Klucel (hydroxypropylcellulose) (HPC) 102 % of control | dose: 12.5 mg/kg/injection, schedule: Q04DX003 (ip), vehicle: Klucel (hydroxypropylcellulose) (HPC) 97 % of control | [8] 102 % of control | [9] 94 % of control | [10] 105 % of control | [11] 103 % of control

COC(=O)/C=C\C[P+](c1ccccc1)(c1ccccc1)c1ccccc1
inactive: dose: 12.5 mg/kg/injection, schedule: Q04DX003 (ip), vehicle: saline 103 % of control | dose: 25.0 mg/kg/injection, schedule: Q04DX003 (ip), vehicle: saline 97 % of control | dose: 50.0 mg/kg/injection, schedule: Q04DX003 (ip), vehicle: saline 100 % of control | [12] 101 % of control

c1ccc2c(c1)C(=Nc1ccc3ccccc3c1)c1ccccc1-2
inactive: dose: 100.0 mg/kg/injection, schedule: Q04DX003 (ip), vehicle: saline with Tween-80 97 % of control | dose: 200.0 mg/kg/injection, schedule: Q04DX003 (ip), vehicle: saline with Tween-80 88 % of control | dose: 400.0 mg/kg/injection, schedule: Q04DX003 (ip), vehicle: saline with Tween-80 92 % of control

O=C(/C=C\C(=O)c1ccc(Cl)cc1)c1ccc(Cl)cc1
inactive: dose: 50.0 mg/kg/injection, schedule: Q04DX003 (ip), vehicle: carboxymethylcellulose (CMC) 104 % of control | dose: 100.0 mg/kg/injection, schedule: Q04DX003 (ip), vehicle: carboxymethylcellulose (CMC) 112 % of control | dose: 200.0 mg/kg/injection, schedule: Q04DX003 (ip), vehicle: carboxymethylcellulose (CMC) 102 % of control

CN(C)CCCNc1nc(-c2cc(C(F)(F)F)cc(C(F)(F)F)c2)nc(C(Cl)(Cl)Cl)n1
inactive: [2] 100 % of control | [3] 92 % of control | dose: 400.0 mg/kg/injection, schedule: Q04DX002 (ip), vehicle: Klucel (hydroxypropylcellulose) (HPC) 106 % of control

Cc1ccc(S(=O)(=O)NCC(=O)NCCC#N)cc1
inactive: dose: 100.0 mg/kg/injection, schedule: Q01DX001 (ip), vehicle: Klucel (hydroxypropylcellulose) (HPC) 103 % of control | dose: 200.0 mg/kg/injection, schedule: Q01DX001 (ip), vehicle: Klucel (hydroxypropylcellulose) (HPC) 97 % of control | dose: 400.0 mg/kg/injection, schedule: Q01DX001 (ip), vehicle: Klucel (hydroxypropylcellulose) (HPC) 92 % of control

CC(=O)OCCCCc1ccccc1
inactive: dose: 50.0 mg/kg/injection, schedule: Q01DX009 (ip), vehicle: saline with Tween-80 97 % of control | [4] 97 % of control | [6] 87 % of control

COc1ccc(CC/C(=N/O)c2ccccc2)cc1
inactive: dose: 50.0 mg/kg/injection, schedule: Q01DX001 (ip), vehicle: other 94 % of control | dose: 100.0 mg/kg/injection, schedule: Q01DX001 (ip), vehicle: other 100 % of control | dose: 200.0 mg/kg/injection, schedule: Q01DX001 (ip), vehicle: other 90 % of control | dose: 400.0 mg/kg/injection, schedule: Q01DX001 (ip), vehicle: other 102 % of control

Cc1cc2c(c3[nH]c4ccccc4c13)C(=O)c1ccccc1C2=O
inactive: [12] 102 % of control | [13] 95 % of control | [14] 102 % of control

O=C1CCCCc2nn(c3ccccc23)C(=O)CCCCc2nn1c1ccccc21
inactive: dose: 25.0 mg/kg/injection, schedule: Q04DX002 (ip), vehicle: Klucel (hydroxypropylcellulose) (HPC) 90 % of control | dose: 50.0 mg/kg/injection, schedule: Q04DX002 (ip), vehicle: Klucel (hydroxypropylcellulose) (HPC) 97 % of control | [2] 93 % of control

Reference: PubChem BioAssay AID248 (DTP/NCI, 2004)
